Where “and” joins values, the source holds several entries; their conditions need not be identical. Identical values can stand only once. Entries after “also recorded” stand apart in the source; their conditions may differ. Like-named read-outs stand apart in the source and are kept apart here.
Key:
SARS-CoV-2 M^pro [1] = target: T1, SARS-CoV-2 M^pro (Severe acute respiratory syndrome coronavirus 2, UniProt P0DTD1); assay: biochemical; assay type: biochemical; conditions: for inhibition at a fixed 20 μM inhibitor concentration: LOPAC and API library screens; for M^pro inhibition at single concentrations (in words): 20, 50 and 100 µM β-lactam, 30 min or 60 min preincubation (Fig. S17)
M^pro = tested on: M^pro; set-up: method as in doi:10.1101/2020.05.28.120642; conditions: read-out: reported IC50; cited from earlier work
SARS-CoV-2 M^pro [2] = target: T1, SARS-CoV-2 M^pro; assay: biochemical; assay type: biochemical
SARS-CoV-2 M^pro [3] = target: T1, SARS-CoV-2 M^pro; assay type: binding; conditions: for covalent modification of M^pro preincubated with N3 (active site selectivity): 1 μM M^pro preincubated with 3 μM N3, 20 μM inhibitor; for covalent modification of M^pro (protein observed SPE-MS): 20 μM inhibitor, 20 mM HEPES pH 7.5, 50 mM NaCl
[4] = 30 min preincubation, SPE-MS dose response
[5] = 60 min preincubation, SPE-MS dose response

| SMILES | % Mpro inhibition at 20 µM (SARS-CoV-2 M^pro [1]) [%] | IC50 (SARS-CoV-2 M^pro [2]; IC50 (SPE-MS)) | covalent modification of M^pro preincubated with N3 (active site selectivity) (SARS-CoV-2 M^pro [3]) | covalent modification of M^pro (protein observed SPE-MS) (SARS-CoV-2 M^pro [3]; 1 μM M^pro) | other results |
| --- | --- | --- | --- | --- | --- |
| CC(=O)OC[C@H]1O[C@@H]([S-])[C@H](OC(C)=O)[C@@H](OC(C)=O)[C@@H]1OC(C)=O.CCP(CC)CC.[Au+] [Auranofin] | 100.0 |  |  |  | inhibition at a fixed 20 μM inhibitor concentration (SARS-CoV-2 M^pro [1]): ≥ 80%; IC50 (M^pro): ~500 nM |
| CC(=O)OCC1=C(C(=O)[O-])N2C(=O)[C@@H](NC(=O)CCC[C@@H](N)C(=O)[O-])[C@H]2SC1.[Zn+2] [Cephalosporin C zinc salt] | 92.3 |  |  |  | Hill slope (SARS-CoV-2 M^pro [2]; 22 minutes preincubation, SPE-MS): 1.83; M^pro inhibition (in words) (SARS-CoV-2 M^pro [1]): inhibited |
| CC1(C)[C@H](C(=O)OCc2ccccc2)N2C(=O)[C@@H](NC(=O)COc3ccccc3)[C@H]2S1(=O)=O [Compound 1, penicillin V sulfone C3 benzyl ester] |  | ~1500 nM and 1500 nM and 900 nM | no reaction | A single molecule 1 covalently modifies M^pro; also recorded: Covalent modification was observed | Hill slope (SARS-CoV-2 M^pro [2]; [4]): 1.4 ± 0.4; Hill slope (SARS-CoV-2 M^pro [2]; [5]): 1.6 ± 0.2; M^pro inhibition at single concentrations (in words) (SARS-CoV-2 M^pro [1]): moderate inhibition |
| COC1(NC(=O)Cc2ccccc2)C(=O)N2C1[S+]([O-])C(C)(C)C2C(=O)OCc1ccc([N+](=O)[O-])cc1 (stereo not shown) [Compound 2, C6-methoxy penicillin G sulfoxide C3 p-nitrobenzyl ester] |  | ~3500 nM and 3500 nM and 2100 nM | Minor further modification | does not efficiently modify M^pro through covalent reaction | Hill slope (SARS-CoV-2 M^pro [2]; [4]): 2.2 ± 0.1; Hill slope (SARS-CoV-2 M^pro [2]; [5]): 2.1 ± 0.1; M^pro inhibition at single concentrations (in words) (SARS-CoV-2 M^pro [1]): moderate inhibition; extent of covalent modification of M^pro (SARS-CoV-2 M^pro [3]; 1 μM M^pro, 20 μM β-lactam): < 10% |
| Cc1cc(C(=O)N[C@@H](C)C(=O)N[C@H](C(=O)N[C@@H](CC(C)C)C(=O)N[C@H](/C=C/C(=O)OCc2ccccc2)C[C@@H]2CCNC2=O)C(C)C)no1 [Compound N3] |  | 40 nM and 30 nM | one major binding event | modifies M^pro in a covalent manner; also recorded: more than one reaction with the Mpro monomer; also recorded: predominantly (but not exclusively) a single N3 adduct was observed |  |
| Oc1ccc2ccccc2c1SSc1c(O)ccc2ccccc12 [IPA-3, 1,1’-Disulfanediyldinaphthalen-2-ol] |  | ~100 nM and 70 nM | multiple adducts observed with unmodified M^pro were diminished; also recorded: does not (at least substantially) covalently modify Mpro | reacts with Mpro at multiple positions | inhibition at a fixed 20 μM inhibitor concentration (SARS-CoV-2 M^pro [1]): ≥ 80%; inhibition at 20 µM (SARS-CoV-2 M^pro [1]; read-out: % Mpro inhibition at 20 µM): 99.1% |
| Cc1ccc(S(=O)(=O)N[C@@H](CCCCN)C(=O)CCl)cc1.Cl [TLCK, Nα-p-Toluenesulfonyl-L-lysine chloromethyl ketone hydrochloride] | 88.3 |  | does not react with TLCK | covalently reacts with M pro | covalent modification of M^pro preincubated with N3 (active site selectivity) (SARS-CoV-2 M^pro [3]; listed as Nα-p-toluenesulfonyl-L-lysine chloromethyl ketone): substantial covalent modification was no longer observed |
| Cc1ccc(S(=O)(=O)N[C@@H](Cc2ccccc2)C(=O)CCl)cc1 [TPCK, N-p-Toluenesulfonyl-L-phenylalanine chloromethyl ketone] | 94.1 |  | does not covalently modify M^pro in the presence of N3; also recorded: substantial covalent modification was no longer observed; also recorded: does not react with TPCK | modifies M^pro in a covalent manner; also recorded: covalently reacts with Mpro | IC50 (SARS-CoV-2 M^pro [2]; pH 7.5, read-out: IC50 (SPE-MS)): ~800 nM and 830 nM |
| [Cl-].[Cl-].[Zn+2] [ZnCl2] |  |  |  |  | Hill slope (SARS-CoV-2 M^pro [2]): 2.23 and 2.07; IC50 (SARS-CoV-2 M^pro [2]; read-out: IC50): 340 nM and 370 nM |

From article PMC8006714 (Chemical Communications (Cambridge, England), 2021)
